Experimental findings from patent publication US6953789B2, “Thiol compounds, their production and use” (Takeda Chemical Industries, Ltd., priority 1998, dated 2005) are described below.

Bounds are passed on as bounds.

As a reminder, the IC50 is the point on the concentration scale where inhibition reaches its midpoint.

The target of the first test is T1, recombinant human MMP-13 (Homo sapiens, UniProt P45452).
T1 construct: made in house; host or cells: baculovirus (pBlueBac4 / Bac-N-Blue; virus made in Sf9), expressed in High-Five insect cells; culture supernatant used
The experiment in a line: Assay of MMP-13 inhibiting activity (fluorogenic peptide substrate). The test is classed as biochemical. The conditions noted are these: Table 1; 37° C., 2 hours. From the text: Based on the sequence described in the literature by Freije, J. M. et al (Journal of Biological Chemistry, 269: 16766-16773, 1994) and using a PCR method known per se, a human MMP-13 cDNA was obtained.
A pBlueBac4 (Invitrogen) and a Baculovirus vector Bac-N-Blue (Invitrogen) to each of which the human MMP-13 cDNA obtained above was integrated were co-transfected to an Sf9 cell to obtain a MMP-13-expressing recombinant virus.
The recombinant virus thus obtained was infected to a High-Five cell (Invitrogen), and the culture supernatant after three days was employed as an enzyme solution. Experiment 2 Assay of MMP-13 inhibiting activity
75 μl of a sample containing the recombinant human MMP-13, 200 mM sodium chloride, 20 mM calcium chloride, 0.1% Brij 35, 1 mM 2-mercaptoethanol, 200 mM tris-HCl buffer solution (pH7.5) and a test substance at various concentrations was treated with 25 μl of 40 μM MOCAc-Pro-Leu-Gly-Leu-A2pr(DNP)-Ala-Arg-NH2 (PEPTIDE KENKYUSHO) to initiate a reaction and kept at 37° C. for 2 hours, and then 100 μl of 500 mM sodium acetate-HCl buffer solution (pH3.0) was added to terminate the reaction.
The level of liberated MOCAc-Pro-Leu-Gly was determined using a fluorophotometer (MTP-32/F2: CORONA DENKI) at the excitation wavelength of 330 nm and the fluorescent wavelength of 405 nm. The fluorescent level of the reaction in the absence of a test substance was regarded as 100%, and the concentration of each test substance required for achieving 50% inhibition was indicated as IC50.
In the case of `CCOC(=O)CCSC1CC(=O)N(Cc2ccc(Oc3ccccc3)cc2)C1=O` (centres unmarked) [Example 3, 3-[2-(Ethoxycarbonyl)ethylthio]-1-(4-phenoxybenzyl)pyrrolidine-2,5-dione], the IC50 was > 10000 nM. As for `O=C(SC1CC(=O)N(Cc2ccc(Oc3ccccc3)cc2)C1=O)c1ccccc1` (centres unmarked) [Example 6, 3-Benzoylthio-1-(4-phenoxybenzyl)pyrrolidine-2,5-dione], the IC50 came out at 2 nM.

The test is the same for the next values; noted with them: Table 3; 37° C., 2 hours.
In the case of `CCNC(=S)S[C@@H]1CC(=O)N(Cc2ccc(Oc3ccccc3)cc2)C1` [Example 77], the IC50 worked out at 1.6 nM. On to `COC(=O)SS[C@@H]1CC(=O)N(Cc2ccc(Oc3ccccc3)cc2)C1` [Example 78, (4R)-4-[(Methoxycarbonyl)disulfanyl]-2-oxo-1-(4-phenoxybenzyl)pyrrolidine], for which the IC50 was > 10000 nM. On to `O=C1CC(S)CN1Cc1ccc(Oc2ccccc2)cc1` (centres unmarked) [Example 17, 4-Mercapto-1-(4-phenoxybenzyl)pyrrolidin-2-one], for which the IC50 came to 5 nM. Consider “Ethyl 3-{[(3R)-5-oxo-1-(4-phenoxybenzyl)-2-pyrrolidinyl]disulfanyl}propanoate [Example 84]”, for which the IC50 worked out at 32 nM. Turning to `O=C1OC(S[C@@H]2CC(=O)N(Cc3ccc(Oc4ccccc4)cc3)C2)c2ccccc21` (stereo partly drawn) [Example 99, (4R)-4-[(3-Oxo-1,3-dihydro-2-benzofuran-1-yl)sulfanyl]-1-(4-phenoxybenzyl)-2-pyrrolidinone], the IC50 came out at 7 nM. Regarding `CS[C@@H]1CC(=O)N(Cc2ccc(Oc3ccccc3)cc2)C1` [Example 89, (4R)-4-(Methylsulfanyl)-1-(4-phenoxybenzyl)-2-pyrrolidinone], the IC50 worked out at 700 nM. With `O=C(SC1CC(=O)N(Cc2ccc(Oc3ccccc3)cc2)C1)c1ccccc1` (centres unmarked) [Example 16, 4-Benzoylthio-1-(4-phenoxybenzyl)pyrrolidin-2-one], the IC50 turned out to be 2 nM. As to `O=C(O)CCS[C@@H]1CC(=O)N(Cc2ccc(Oc3ccccc3)cc2)C1` [Example 93, 3-{[(3R)-5-Oxo-1-(4-phenoxybenzyl)pyrrolidinyl]sulfanyl}propanoic acid], the IC50 came out at 6000 nM. As to `COCS[C@@H]1CC(=O)N(Cc2ccc(Oc3ccccc3)cc2)C1` [Example 98, (4R)-4-[(Methoxymethyl)sulfanyl]-1-(4-phenoxybenzyl)-2-pyrrolidinone], the IC50 was 200 nM. Still for that read-out and setting: the value for `O=C1C[C@@H](SC(=O)N2CCOCC2)CN1Cc1ccc(Oc2ccccc2)cc1` [Example 63, S-[(3R)-5-oxo-1-(4-phenoxybenzyl)pyrrolidinyl]4-morpholinecarbothioate] was 2000 nM. Take `CCOC(=O)CC(=O)S[C@@H]1CC(=O)N(Cc2ccc(Oc3ccccc3)cc2)C1` [Example 71, Ethyl 3-oxo-3-{[(3R)-5-oxo-1-(4-phenoxybenzyl)pyrrolidinyl]sulfanyl}propanoate]: the IC50 is 0.89 nM.

On to `CCCNC(=O)SC1CC(=O)N(Cc2ccc(Oc3ccccc3)cc2)C1` (stereo not drawn) [Example 52, S-[5-oxo-1-(4-phenoxybenzyl)-3-pyrrolidinyl]propylcarbamothioate], for which the IC50 amounted to 2 nM.

Take `CCOC(=O)NC(=O)S[C@@H]1CC(=O)N(Cc2ccc(Oc3ccccc3)cc2)C1` [Example 57, O-Ethyl S-[(3R)-5-oxo-1-(4-phenoxybenzyl)pyrrolidinyl]imidothiodicarbonate]: the IC50 turned out to be 0.81 nM.

For `O=C(Nc1ccccc1)SC1CC(=O)N(Cc2ccc(Oc3ccccc3)cc2)C1` (stereo not drawn) [Example 53, S-[5-oxo-1-(4-phenoxybenzyl)-3-pyrrolidinyl]phenylcarbamothioate], the IC50 was found to be 1 nM.

Staying with this test, now noted: Table 5; 37° C., 2 hours.
As to `CC(C)C[C@H]1[C@H](S)CC(=O)N1Cc1ccc(Oc2ccccc2)cc1` (relative stereo) [Example 180, trans-5-Isobutyl-4-mercapto-1-(4-phenoxybenzyl)pyrrolidin-2-one], the IC50 was found to be 20 nM. The same measure, in the same setting: then `O=C1C[C@@H](S)[C@H](Cc2ccccc2)N1Cc1ccc(Oc2ccccc2)cc1` (relative stereo) [Example 182, trans-5-Benzyl-4-mercapto-1-(4-phenoxybenzyl)pyrrolidin-2-one], with 20 nM.

Staying with this test, now noted: Table 6; 37° C., 2 hours.
Regarding `CC(=O)SC1CN(Cc2ccc(Oc3ccccc3)cc2)C(=O)C1C` (stereo not drawn) [Example 194, trans-4-Acetylthio-3-methyl-1-(4-phenoxybenzyl)pyrrolidin-2-one], the IC50 turned out to be 30 nM.

Staying with this test, now noted: Table 7; 37° C., 2 hours.
For the compound `O=C1CC(CSSCC2CC(=O)N(Cc3ccc(Oc4ccccc4)cc3)C2=O)C(=O)N1Cc1ccc(Oc2ccccc2)cc1` (centres unmarked) [Example 13, 3,3′-[Dithiobis(methylene)]bis[1-(4-phenoxybenzyl)pyrrolidine-2,5-dione]], the IC50 was > 10000 nM.

Turning to `O=C1C[C@H](SS[C@H]2CC(=O)N(Cc3ccc(Oc4ccccc4)cc3)C2)CN1Cc1ccc(Oc2ccccc2)cc1` [Example 23, (4S,4′S)-4,4′-Dithiobis[1-(4-phenoxybenzyl)pyrrolidin-2-one]], the IC50 is > 10000 nM.

The same test, now with this note: Table 8; 37° C., 2 hours.
With `O=C(SC1CCN(Cc2ccc(Oc3ccccc3)cc2)C1=O)c1ccccc1` (centres unmarked) [Example 28, 3-Benzoylthio-1-(4-phenoxybenzyl)pyrrolidin-2-one], the IC50 was found to be 1000 nM.

The test is the same for the next values; noted with them: Table 9; 37° C., 2 hours.
For `O=C1CC(S)CN1Cc1ccc(Oc2ccc(Br)cc2)cc1` (centres unmarked) [Example 35, 4-Mercapto-1-(4-(4′-bromophenoxy)benzyl)pyrrolidin-2-one], the IC50 stood at 6 nM.

Turning to `CC(=O)SC1CC(=O)N(Cc2ccc(Oc3ccccc3)c(NS(C)(=O)=O)c2)C1` (centres unmarked) [Example 152, 4-Acetylthio-1-(3-methylsulfonylamino-4-phenoxybenzyl)pyrrolidin-2-one], the IC50 was > 10000 nM. As to `O=C1CC(S)CN1Cc1ccc(Oc2ccccc2F)cc1` (centres unmarked) [Example 113, 4-Mercapto-1-[4-(2′-fluorophenoxy)benzyl]pyrrolidin-2-one], the IC50 amounted to 4 nM. Consider `O=C1CC(S)CN1Cc1ccc(Oc2ccc(F)cc2F)cc1` (centres unmarked) [Example 120, 4-Mercapto-1-[4-(2′,4′-difluorophenoxy)benzyl]pyrrolidin-2-one], for which the IC50 was 7 nM. Take `O=C1CC(S)CN1Cc1ccc(Oc2ccc(OC(F)(F)F)cc2)cc1` (centres unmarked) [Example 141, 4-Mercapto-1-{4-[4′-(trifluoromethoxy)phenoxy]benzyl}pyrrolidin-2-one]: the IC50 was found to be 10 nM. Take `COc1ccc(Oc2ccc(CN3CC(S)CC3=O)cc2)cc1` (centres unmarked) [Example 37, 4-Mercapto-1-(4-(4′-methoxyphenoxy)benzyl)pyrrolidin-2-one]: the half-inhibitory concentration (IC50) was determined as 5 nM. Regarding `CC(=O)SC1CC(=O)N(Cc2ccc(Oc3ccc(C(=O)O)cc3)cc2)C1` (centres unmarked) [Example 133, 4-Acetylthio-1-[4-(4′-carboxyphenoxy)benzyl]pyrrolidin-2-one], the half-inhibitory concentration (IC50) is > 10000 nM. Same read-out and setting: the value for “4-Acetylthio-1-[4-(2′-fluorophenoxy)benzyl]pyrrolidin-2-one [Example 112]” was 20 nM. Consider `CC(=O)SC1CC(=O)N(Cc2ccc(Oc3ccc(F)cc3)cc2)C1` (centres unmarked) [Example 30, 4-Acetylthio-1-(4-(4′-fluorophenoxy)benzyl)pyrrolidin-2-one], for which the IC50 came out at 10 nM. Take `O=C1CC(S)CN1Cc1ccc(Oc2cccc(F)c2)cc1` (centres unmarked) [Example 115, 4-Mercapto-1-[4-(3′-fluorophenoxy)benzyl]pyrrolidin-2-one]: the IC50 was determined as 4 nM.

Staying with this test, now noted: Table 10; 37° C., 2 hours.
In the case of `O=C1CC(S)CN1Cc1ccc([S+]([O-])c2ccccc2)cc1` (centres unmarked) [Example 172, 4-Mercapto-1-(4-phenylsulfinylbenzyl)pyrrolidin-2-one], the IC50 is > 10000 nM.

For the compound `O=C1CC(S)CN1Cc1ccc(Sc2ccccc2)cc1` (centres unmarked) [Example 155, 4-Mercapto-1-(4-phenylthiobenzyl)pyrrolidin-2-one], the IC50 was found to be 7 nM. As for `O=C1CC(S)CN1Cc1ccc(COc2ccccc2)cc1` (centres unmarked) [Example 164, 4-Mercapto-1-(4-phenoxymethylbenzyl)pyrrolidin-2-one], the IC50 was 80 nM. For the compound `O=C(c1ccccc1)c1ccc(CN2CC(S)CC2=O)cc1` (centres unmarked) [Example 162, 4-Mercapto-1-(4-benzoylbenzyl)pyrrolidin-2-one], the IC50 was 20 nM.

For `CC(=O)SC1CC(=O)N(Cc2ccc(S(=O)(=O)c3ccccc3)cc2)C1` (centres unmarked) [Example 173, 4-Acetylthio-1-(4-phenylsulfonylbenzyl)pyrrolidin-2-one], the IC50 was > 10000 nM. Consider `O=C1CC(S)CN1Cc1ccc(S(=O)(=O)c2ccccc2)cc1` (centres unmarked) [Example 174, 4-Mercapto-1-(4-phenylsulfonylbenzyl)pyrrolidin-2-one], for which the IC50 turned out to be 510 nM. As to `O=C1CC(S)CN1CCc1ccc(Oc2ccccc2)cc1` (centres unmarked) [Example 170, 1-(4-Phenoxyphenethyl)-4-sulfanyl-2-pyrrolidinone], the IC50 is 500 nM.

Still in this test, the particulars now being: Table 11; 37° C., 2 hours.
For `O=C1CC(S)CN1Cc1ccc(Oc2ccsc2)cc1` (centres unmarked) [Example 158, 4-Mercapto-1-[4-(3′-thienyloxy)benzyl]pyrrolidin-2-one], the IC50 amounted to 4 nM.

Staying with this test, now noted: Table 12; 37° C., 2 hours.
With `O=C1CCC(S)CN1Cc1ccc(Oc2ccccc2)cc1` (centres unmarked) [Example 109, 1-(4-Phenoxybenzyl)-5-sulfanyl-2-piperidinone], the IC50 was determined as 60 nM.
